Laboratory results from US20110059941A1, “2-PHENYL SUBSTITUTED IMIDAZOL [4,5B] PYRIDINE/PYRAZINE AND PURINE DERIVATIVES AS GLUCOKINASE MODULATORS” (priority 2005, published 2011).

Target: T1, recombinant human pancreatic GLK (Homo sapiens, UniProt P35557)
T1 sequence (P35557 1-465): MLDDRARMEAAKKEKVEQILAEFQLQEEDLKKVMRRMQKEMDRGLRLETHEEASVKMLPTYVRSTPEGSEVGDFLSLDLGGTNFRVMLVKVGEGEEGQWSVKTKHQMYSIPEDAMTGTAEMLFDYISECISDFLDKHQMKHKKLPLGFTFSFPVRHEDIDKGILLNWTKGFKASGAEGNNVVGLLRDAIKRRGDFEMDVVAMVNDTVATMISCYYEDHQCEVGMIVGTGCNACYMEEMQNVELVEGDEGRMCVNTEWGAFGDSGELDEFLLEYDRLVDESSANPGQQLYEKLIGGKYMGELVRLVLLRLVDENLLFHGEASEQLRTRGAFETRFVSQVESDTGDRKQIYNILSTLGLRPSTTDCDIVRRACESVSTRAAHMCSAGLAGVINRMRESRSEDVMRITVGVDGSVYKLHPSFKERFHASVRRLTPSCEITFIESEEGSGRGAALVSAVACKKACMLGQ
Assay: biochemical

COC[C@H](C)Oc1cc(OCc2ccccc2)cc(-c2nc3cccnc3[nH]2)c1 [Example 1, 2-{3-(Benzyloxy)-5-[(1S)-2-methoxy-1-methylethoxy]phenyl}-3H-imidazo[4,5-b]pyridine]
EC50: 600 nM
